Like-named read-outs stand apart in the source and are kept apart here.
Columns and labels:
PDE10A = biological target: T1, PDE10A (Homo sapiens, UniProt Q9Y233); test: Inhibition of recombinant PDE10A (baculovirus/SF21 system), [3H]-cAMP SPA; type: biochemical; conditions: read-out: PDE10A IC50
T1 construct: made in house; host or cells: SF21 insect cells (baculovirus)
Protocol: Inhibition of Recombinant PDE10A (Baculovirus/SF21 System)
The gene was than inserted into a baculovirus vector, ligated with the baculovirus DNA. The enzyme-protein was expressed in SF21-cells. The enzyme was isolated from these cells by harvesting the cells by an centrifugation at 500 g to collect the cells.
The cells were resuspended in 50 mM Tris-HCl/1 mM EDTA/250 mM Sucrose buffer, pH=7.4 (Sigma, Deisenhofen, Germany; Merck, Darmstadt, Germany) and lysed by sonification of the cells (three times for 15 seconds, Labsonic U, Fa. Braun, Degersheim, Switzerland, level “high”). The cytosolic PDE10A was obtained by a centrifugation at 48,000 g for 1 h in the supernatant and stored at −70° C.
PDE activity was determined in a one step procedure in microtiter plates. The reaction mixture of 100 μl contained 50 mM Tris-HCl/5 mM MgCl2 buffer (pH=7.4, Sigma, Deisenhofen, Germany; Merck, Darmstadt, Germany) 0.1 μM [3H]-cAMP (Amersham, Buckinghamshire, UK) and the enzyme. Non-specific enzyme activity was determined without the enzyme. The reaction was initiated by addition of the substrate solution and was carried out at 37° C. for 30 minutes. Enzymatic activity then was stopped by addition of 25 μl Ysi-SPA-beads (Amersham-Pharmacia). One hour later the mixture was measured in a liquid scintillation counter for microtiter plates (Microbeta Trilux). The Biomek 2000 (Beckman) was used routinely for pipetting of the incubation mixture. […] For determination of IC50 values the Hill-plot, 2-parameter-model, was used.

PDE2A = biological target: T2, PDE2A (Homo sapiens, UniProt O00408); test: Inhibition of recombinant PDE2A (expressed in baculovirus/SF21-cells), [3H]-cAMP SPA; type: biochemical
T2 construct: made in house; host or cells: SF21 insect cells (baculovirus)
T2 sequence (O00408 whole entry): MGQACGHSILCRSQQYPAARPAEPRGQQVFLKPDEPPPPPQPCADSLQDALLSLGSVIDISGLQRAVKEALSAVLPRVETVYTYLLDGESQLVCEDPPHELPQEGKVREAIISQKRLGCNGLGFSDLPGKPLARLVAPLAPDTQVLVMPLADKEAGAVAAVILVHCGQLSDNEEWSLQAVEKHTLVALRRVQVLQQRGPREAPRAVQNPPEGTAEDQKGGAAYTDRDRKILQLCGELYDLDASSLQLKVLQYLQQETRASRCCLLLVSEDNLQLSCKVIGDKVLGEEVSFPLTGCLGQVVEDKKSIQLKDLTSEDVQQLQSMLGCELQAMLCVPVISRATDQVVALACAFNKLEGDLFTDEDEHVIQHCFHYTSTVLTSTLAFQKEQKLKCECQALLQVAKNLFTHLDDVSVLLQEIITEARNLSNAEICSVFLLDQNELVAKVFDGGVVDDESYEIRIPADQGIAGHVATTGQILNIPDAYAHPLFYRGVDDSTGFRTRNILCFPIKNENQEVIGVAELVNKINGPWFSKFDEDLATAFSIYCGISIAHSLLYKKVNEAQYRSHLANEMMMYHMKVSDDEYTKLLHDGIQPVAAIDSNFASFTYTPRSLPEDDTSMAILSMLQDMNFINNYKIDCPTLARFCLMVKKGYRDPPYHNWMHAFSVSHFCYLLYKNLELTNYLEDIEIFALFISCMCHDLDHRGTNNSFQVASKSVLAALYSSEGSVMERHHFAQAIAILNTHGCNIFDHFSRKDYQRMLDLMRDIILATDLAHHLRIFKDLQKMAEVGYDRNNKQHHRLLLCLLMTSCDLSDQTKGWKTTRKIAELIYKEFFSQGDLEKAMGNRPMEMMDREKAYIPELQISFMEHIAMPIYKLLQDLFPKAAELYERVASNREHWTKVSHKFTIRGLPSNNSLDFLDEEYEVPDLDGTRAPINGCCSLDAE
Protocol: Inhibition of Recombinant PDE2A (Expressed in Baculovirus/SF21-Cells)
PDE2A (NM002599) was cloned and the gene was inserted in the baculovirus and the enzyme-protein expressed in SF21-cells. The enzyme was isolated from these cells by harvesting the cells by an centrifugation at 200 g to collect the cells. The cells were resuspended in 50 mM Tris-HCl/5 mM MgCl2 buffer (pH=7.4) (Sigma, Deisenhofen, Germany; Merck, Darmstadt, Germany) and lysed by a sonication of the cells (three times for 15 seconds, Labsonic U, Fa. Braun, Degersheim, Switzerland, level “high”). The membrane fraction of PDE2A was obtained by a centrifugation at 48 000 g for 1 h, resuspended in buffer and stored at −70° C.
PDE2A activity was determined in a one step procedure in microtiterplates. The reaction mixture of 100 μl contained 50 mM Tris-HCl/5 mM MgCl2 buffer (pH=7.4) (Sigma, Deisenhofen, Germany; Merck, Darmstadt, Germany), 0.5 μM [3H]-cAMP (Amersham, Buckinghamshire, UK), 1000 nM cGMP and the enzyme. Non-specific enzyme activity was tested in the absence of cGMP. The reaction was initiated by addition of the substrate solution and was carried out at 37° C. for 30 minutes. Enzymatic activity then was stopped by addition of 25 μl SPA-beads (Amersham-Pharmacia). One hour later the mixture was measured in a liquid scintillation counter for microtiterplates (Microbeta Trilux). For pipetting of the incubation mixture the robot Biomek (Fa. Beckman) was routinely used.
For determination of IC50 values the Hill-plot, 2-parameter-model, was used.

[1] = recombinant PDE10A1, cytosolic, 0.1 μM [3H]-cAMP, 37° C., 30 minutes

T1 sequence (Q9Y233 1-779 isoform Q9Y233-1): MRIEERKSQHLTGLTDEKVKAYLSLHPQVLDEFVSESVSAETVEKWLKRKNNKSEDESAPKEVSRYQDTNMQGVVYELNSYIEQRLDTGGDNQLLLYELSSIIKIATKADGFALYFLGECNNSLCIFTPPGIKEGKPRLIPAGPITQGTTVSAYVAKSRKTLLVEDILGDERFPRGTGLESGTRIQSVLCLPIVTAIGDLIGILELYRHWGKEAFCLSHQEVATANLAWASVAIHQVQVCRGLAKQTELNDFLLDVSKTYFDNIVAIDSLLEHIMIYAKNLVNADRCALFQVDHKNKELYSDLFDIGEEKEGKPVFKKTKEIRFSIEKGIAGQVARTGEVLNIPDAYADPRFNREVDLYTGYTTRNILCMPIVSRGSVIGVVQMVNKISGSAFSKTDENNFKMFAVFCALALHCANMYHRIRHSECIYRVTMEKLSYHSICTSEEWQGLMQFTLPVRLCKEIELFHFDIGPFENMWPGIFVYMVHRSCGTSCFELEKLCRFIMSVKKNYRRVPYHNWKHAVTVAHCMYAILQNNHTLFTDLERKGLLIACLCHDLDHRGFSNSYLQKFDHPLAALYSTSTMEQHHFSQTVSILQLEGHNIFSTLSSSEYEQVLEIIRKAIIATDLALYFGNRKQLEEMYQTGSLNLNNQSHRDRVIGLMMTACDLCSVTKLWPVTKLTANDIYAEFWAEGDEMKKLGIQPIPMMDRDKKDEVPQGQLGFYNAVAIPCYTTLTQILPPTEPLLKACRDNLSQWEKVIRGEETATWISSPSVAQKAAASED

| Compound | IC50 (PDE10A; [1]) [nM] | IC50 (PDE2A) [nM] | IC50 (PDE2A; recombinant PDE2A, membrane fraction, 0.5 μM [3H]-cAMP, 1000 nM cGMP, 37° C., 30 minutes, read-out: PDE2A IC50) [nM] | IC50 (PDE10A) [nM] |
| --- | --- | --- | --- | --- |
| 8-fluoro-1-isobutyl-3-methylbenzo[e]imidazo[5,1-c][1,2,4]triazine [Example 9] | 156 |  | 302 |  |
| 8-fluoro-6-methoxy-3-methyl-1-(2-methylpyridin-3-yl)imidazo[5,1-c][1,2,4]benzotriazine [Example 130] |  |  |  | 7.84 |
| 8-fluoro-6-methoxy-3-methyl-1-(3-methylpyridin-4-yl)imidazo[5,1-c][1,2,4]benzotriazine [Example 131] | 7.2 |  |  |  |
| COc1cc(OC)c2nnc3c(C)nc(-c4cnccc4C)n3c2c1 [Example 45, 6,8-dimethoxy-3-methyl-1-(4-methylpyridin-3-yl)imidazo[5,1-c][1,2,4]benzotriazine] | 4.16 | 775 |  |  |
| COc1cc(OC)c2nnc3c(C)nc(-c4ccncc4C)n3c2c1 [Example 47, 6,8-dimethoxy-3-methyl-1-(3-methylpyridin-4-yl)-imidazo[5,1-c][1,2,4]benzotriazine] | 2.06 | 589 |  |  |
| COc1cc(OC)c2nnc3c(C)nc(-c4cccnc4C)n3c2c1 [Example 48, 6,8-dimethoxy-3-methyl-1-(2-methylpyridin-3-yl)imidazo[5,1-c][1,2,4]benzotriazine] | 1.48 | 196 |  |  |
| COc1cc(OC)c2nnc3c(C)nc(-c4c(C)n[nH]c4C)n3c2c1 [Example 51, 1-(3,5-dimethyl-1H-pyrazol-4-yl)-6,8-dimethoxy-3-methylimidazo[5,1-c][1,2,4]benzotriazine] | 0.7 | 210 |  |  |
| COc1cc(OC)c2nnc3c(C)nc(-c4c(C)nn(C)c4C)n3c2c1 [Example 52, 6,8-dimethoxy-3-methyl-1-(1,3,5-trimethyl-1H-pyrazol-4-yl)imidazo[5,1-c][1,2,4]benzotriazine] | 1.85 | 292 |  |  |
| COc1cccc2c1nnc1c(C)nc(-c3ccccc3C)n12 [Example 60, 6-methoxy-3-methyl-1-(2-methylphenyl)imidazo[5,1-c][1,2,4]benzotriazine] | 3.31 | 172 |  |  |
| COc1cccc2c1nnc1c(C)nc(-c3ccccc3Cl)n12 [Example 61, 1-(2-chlorophenyl)-6-methoxy-3-methylbenzo[e]imidazo[5,1-c][1,2,4]triazine] | 2.41 | 103 |  |  |
| COc1cccc2c1nnc1c(C)nc(-c3ccncc3C)n12 [Example 62, 6-methoxy-3-methyl-1-(3-methylpyridin-4-yl)imidazo[5,1-c][1,2,4]benzotriazine] | 8.34 | 442 |  |  |
| COc1cc(N2CCOCC2)cc2c1nnc1c(C)nc(-c3ccncc3C)n12 [Example 63, 6-methoxy-3-methyl-1-(3-methylpyridin-4-yl)-8-morpholin-4-ylimidazo[5,1-c][1,2,4]benzotriazine] | 3.99 | 437 |  |  |
| COc1cc(N2CCOCC2)cc2c1nnc1c(C)nc(-c3cccnc3C)n12 [Example 64, 6-methoxy-3-methyl-1-(2-methylpyridin-3-yl)-8-morpholin-4-ylimidazo[5,1-c][1,2,4]benzotriazine] | 1.92 | 70.4 |  |  |
| COc1cc(N2CCOCC2)cc2c1nnc1c(C)nc(-c3ccccc3Cl)n12 [Example 65, 1-(2-chlorophenyl)-6-methoxy-3-methyl-8-morpholin-4-ylimidazo[5,1-c][1,2,4]benzotriazine] | 0.85 | 50.4 |  |  |
| COc1cc(N2CCOCC2)cc2c1nnc1c(C)nc(-c3ccccc3C)n12 [Example 66, 6-methoxy-3-methyl-1-(2-methylphenyl)-8-morpholin-4-ylimidazo[1,5-c][1,2,4]benzotriazine] | 1.53 | 110 |  |  |
| COc1cccc(-c2nc(C)c3nnc4c(F)cc(OC)cc4n23)c1 [Example 67, 6-fluoro-8-methoxy-1-(3-methoxyphenyl)-3-methylimidazo[5,1-c][1,2,4]benzotriazine] | 16.8 | 64.8 |  |  |

The next lines start with results.

| IC50 (PDE10A; [1]) [nM] | IC50 (PDE2A) [nM] | Compound | IC50 (PDE2A; recombinant PDE2A, membrane fraction, 0.5 μM [3H]-cAMP, 1000 nM cGMP, 37° C., 30 minutes, read-out: PDE2A IC50) [nM] | IC50 (PDE10A) [nM] |
| --- | --- | --- | --- | --- |
| 64.2 | 109 | COc1cc(F)c2nnc3c(C)nc(-c4cc(Cl)ccc4OC)n3c2c1 [Example 68, 1-(5-chloro-2-methoxyphenyl)-6-fluoro-8-methoxy-3-methylimidazo[5,1-c][1,2,4]benzotriazine] |  |  |
| 34.7 | 55.5 | COc1cc(F)c2nnc3c(C)nc(-c4ccc(F)cc4C)n3c2c1 [Example 69, 6-fluoro-1-(4-fluoro-2-methylphenyl)-8-methoxy-3-methylimidazo[5,1-c][1,2,4]benzotriazine] |  |  |
| 12.5 | 22.8 | COc1cc(F)c2nnc3c(C)nc(-c4ccc(F)cc4Cl)n3c2c1 [Example 70, 1-(2-chloro-4-fluorophenyl)-6-fluoro-8-methoxy-3-methylimidazo[5,1-c][1,2,4]benzotriazine] |  |  |
| 11.4 | 5.53 | COc1cc(F)c2nnc3c(C)nc(-c4ccc(C)cc4Cl)n3c2c1 [Example 71, 1-(2-chloro-4-methylphenyl)-6-fluoro-8-methoxy-3-methylimidazo[5,1-c][1,2,4]benzotriazine] |  |  |
| 7.77 | 14.4 | COc1cc(F)c2nnc3c(C)nc(-c4cc(C)ccc4Cl)n3c2c1 [Example 72, 1-(2-chloro-5-methylphenyl)-6-fluoro-8-methoxy-3-methylimidazo[5,1-c][1,2,4]benzotriazine] |  |  |
| 18.9 | 15.1 | COc1cc(F)c2nnc3c(C)nc(-c4cc(F)ccc4C)n3c2c1 [Example 73, 6-fluoro-1-(5-fluoro-2-methylphenyl)-8-methoxy-3-methylimidazo[5,1-c][1,2,4]benzotriazine] |  |  |
| 38.5 | 134 | COc1cc(F)c2nnc3c(C)nc(-c4ccc(C)cc4F)n3c2c1 [Example 74, 6-fluoro-1-(2-fluoro-4-methylphenyl)-8-methoxy-3-methylimidazo[5,1-c][1,2,4]benzotriazine] |  |  |
| 15 | 13.9 | COc1cc(F)c2nnc3c(C)nc(-c4cc(C)ccc4F)n3c2c1 [Example 75, 6-fluoro-1-(2-fluoro-5-methylphenyl)-8-methoxy-3-methylimidazo[5,1-c][1,2,4]benzotriazine] |  |  |
| 9.6 | 9.3 | COc1ccc(F)c(-c2nc(C)c3nnc4c(F)cc(OC)cc4n23)c1 [Example 76, 6-fluoro-1-(2-fluoro-5-methoxyphenyl)-8-methoxy-3-methylimidazo[5,1-c][1,2,4]benzotriazine] |  |  |
| 7.13 |  | COc1cc(F)cc2c1nnc1c(C)nc(-c3cc(C)ccc3F)n12 [Example 105, 8-fluoro-1-(2-fluoro-5-methylpehnyl)-6-methoxy-3-methylimidazo[5,1-c][1,2,4]benzotriazine] |  |  |
| 2.02 |  | COc1cc(F)cc2c1nnc1c(C)nc(-c3cc(F)ccc3Cl)n12 [Example 118, 1-(2-chloro-5-fluorophenyl)-8-fluoro-6-methoxy-3-methylimidazo[5,1-c][1,2,4]benzotriazine] |  |  |
| 32.7 |  | Cc1cnccc1-c1nc(C)c2nnc3c(Cl)cc(C(F)(F)F)cc3n12 [Example 132, 6-Chloro-3-methyl-1-(3-methylpyridin-4-yl)-8-(trifluoromethyl)imidazo[5,1-c][1,2,4]benzotriazine] |  |  |
| 10.6 |  | COc1ccc(Cl)cc1-c1nc(C)c2nnc3c(OC)cc(C(F)(F)F)cc3n12 [Example 142, 1-(5-Chloro-2-methoxyphenyl)-6-methoxy-3-methyl-8-(trifluoromethyl)benzo[e]imidazo[5,1-c][1,2,4]triazine] |  |  |
